The text below walks through data of ChEMBL document CHEMBL4406853 (Eur J Med Chem, 2019).

The target in experiment [1] is T1, Mu-type opioid receptor (Homo sapiens, UniProt P35372). The experiment is described as follows: Inhibition of mu opioid receptor (unknown origin) expressed in HEK293 cells assessed as inhibition of forskolin-stimulated intracellular cAMP accumulation preincubated for 30 mins followed by forskolin-stimulation and measured after 60 mins. The class given is functional, cell-based. On the technique in general: cAMP levels reflect the balance of adenylyl cyclase and phosphodiesterase activity.

Experiment [2] has as its target T1, Mu-type opioid receptor. In words: Inhibition of mu opioid receptor (unknown origin) expressed in HEK293 cells assessed as inhibition of forskolin-stimulated […] preincubated for 30 mins followed by forskolin-stimulation and measured after 60 mins. The class given is cell-based. On the technique in general: Recruitment of arrestin is a read-out of receptor activation apart from second messengers.

The target of experiment [3] is T2, Kappa-type opioid receptor (Homo sapiens, UniProt P41145). The experiment is described as follows: Binding affinity to kappa opioid receptor (unknown origin).
For experiment [4], the target named is T2, Kappa-type opioid receptor. In words: Inhibition of kappa opioid receptor (unknown origin).
The target in experiment [5] is T2, Kappa-type opioid receptor. The experiment is described as follows: Inhibition of kappa opioid receptor (unknown origin) relative to control.
The test system of experiment [6] is Mus musculus. The experiment is described as follows: Antinociceptive activity in icv dosed mouse. The class given is functional.
Experiment [7] concerns the target T2, Kappa-type opioid receptor. In words: Inhibition of kappa opioid receptor (unknown origin) by [35S]-GTPgammaS binding assay. Type of experiment: functional. (GTPγS is a poorly hydrolysed GTP analogue; its binding reports G protein activation.)
For experiment [8], the target named is T1, Mu-type opioid receptor. The experiment is described as follows: Displacement of [3H]DAMGO from mu opioid receptor (unknown origin) expressed in HEK293 cells after 1 hr by liquid scintillation counting. The class given is cell-based.
For experiment [9], the target named is T3, Delta-type opioid receptor (Homo sapiens, UniProt P41143). In words: Inhibition of delta opioid receptor (unknown origin) in presence of DPDPE by [35S]-GTPgammaS binding assay. The class given is functional.
The target of experiment [10] is T3, Delta-type opioid receptor. The experiment is described as follows: Inhibition of delta opioid receptor (unknown origin) in presence of DAMGO by [35S]-GTPgammaS binding assay. Type of experiment: functional.
The target of experiment [11] is T1, Mu-type opioid receptor. The experiment is described as follows: Inhibition of mu opioid receptor (unknown origin) in presence of DPDPE by [35S]-GTPgammaS binding assay. Type of experiment: functional.
Experiment [12] addresses T1, Mu-type opioid receptor. In words: Inhibition of mu opioid receptor (unknown origin) in presence of DPDPE by [35S]-GTPgammaS binding assay relative to control. Type of experiment: functional.
Experiment [13] deals with T2, Kappa-type opioid receptor. The experiment is described as follows: Inhibition of kappa opioid receptor (unknown origin) in presence of DPDPE by [35S]-GTPgammaS binding assay relative to control. The class given is functional.
The target of experiment [14] is T3, Delta-type opioid receptor. The experiment is described as follows: Inhibition of delta opioid receptor (unknown origin) in presence of DAMGO by [35S]-GTPgammaS binding assay relative to control. The class given is functional.
Experiment [15] has as its target T2, Kappa-type opioid receptor. The experiment is described as follows: Inhibition of kappa opioid receptor (unknown origin) in presence of DPDPE by [35S]-GTPgammaS binding assay. Type of experiment: functional.
In experiment [16] the target is T2, Kappa-type opioid receptor. In words: Inhibition of kappa opioid receptor (unknown origin) in presence of DAMGO by [35S]-GTPgammaS binding assay. The class given is functional.
Experiment [17] concerns the target T2, Kappa-type opioid receptor. In words: Inhibition of kappa opioid receptor (unknown origin) in presence of DAMGO by [35S]-GTPgammaS binding assay relative to control. Type of experiment: functional.
Experiment [18] has as its target T1, Mu-type opioid receptor. The experiment is described as follows: Inhibition of mu opioid receptor (unknown origin) in presence of DAMGO by [35S]-GTPgammaS binding assay. The class given is functional.
Experiment [19] has as its target T3, Delta-type opioid receptor. The experiment is described as follows: Inhibition of delta opioid receptor (unknown origin) in presence of DPDPE by [35S]-GTPgammaS binding assay relative to control. Type of experiment: functional.
The subject of experiment [20] is Mus musculus. The experiment is described as follows: Antinociceptive activity in icv dosed Kunming mouse. The class given is functional. To be noted: central.
Experiment [21] concerns Mus musculus. The experiment is described as follows: Antinociceptive activity in iv dosed Kunming mouse. The class given is functional.

T1 sequence (P35372 whole entry): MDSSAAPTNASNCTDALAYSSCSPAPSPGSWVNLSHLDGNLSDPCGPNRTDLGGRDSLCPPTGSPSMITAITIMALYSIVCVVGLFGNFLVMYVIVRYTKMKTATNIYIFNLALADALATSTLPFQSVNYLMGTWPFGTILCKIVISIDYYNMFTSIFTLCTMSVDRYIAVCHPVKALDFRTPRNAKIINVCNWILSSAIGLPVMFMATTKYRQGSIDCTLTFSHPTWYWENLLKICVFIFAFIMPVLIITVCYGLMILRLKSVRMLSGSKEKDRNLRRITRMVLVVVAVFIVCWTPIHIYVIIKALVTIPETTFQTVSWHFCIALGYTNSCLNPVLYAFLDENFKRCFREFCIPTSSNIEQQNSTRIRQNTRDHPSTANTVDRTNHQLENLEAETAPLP
T3 sequence (P41143 whole entry): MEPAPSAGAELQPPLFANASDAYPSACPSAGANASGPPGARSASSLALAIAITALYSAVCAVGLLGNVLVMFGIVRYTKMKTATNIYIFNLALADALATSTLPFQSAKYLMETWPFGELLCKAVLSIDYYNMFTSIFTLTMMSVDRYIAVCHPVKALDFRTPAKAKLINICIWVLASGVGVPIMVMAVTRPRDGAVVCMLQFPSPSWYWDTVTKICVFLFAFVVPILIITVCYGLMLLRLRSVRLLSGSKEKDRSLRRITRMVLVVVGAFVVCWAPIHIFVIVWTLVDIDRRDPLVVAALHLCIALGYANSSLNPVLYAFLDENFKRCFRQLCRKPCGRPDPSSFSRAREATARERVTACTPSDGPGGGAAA
T2 sequence (P41145 whole entry): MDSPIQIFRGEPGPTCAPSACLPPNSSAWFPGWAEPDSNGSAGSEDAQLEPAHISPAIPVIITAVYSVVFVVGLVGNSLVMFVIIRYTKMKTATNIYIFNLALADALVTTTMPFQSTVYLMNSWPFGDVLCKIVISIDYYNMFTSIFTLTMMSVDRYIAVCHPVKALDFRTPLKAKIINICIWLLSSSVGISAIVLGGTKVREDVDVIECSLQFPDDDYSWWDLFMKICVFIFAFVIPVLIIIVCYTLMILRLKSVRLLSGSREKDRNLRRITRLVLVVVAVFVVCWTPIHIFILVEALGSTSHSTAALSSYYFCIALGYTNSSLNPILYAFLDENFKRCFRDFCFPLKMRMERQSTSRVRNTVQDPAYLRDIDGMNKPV

For `C[C@H](Cc1ccsc1)NC(=O)NC[C@H](Cc1ccc2ccccc2c1)N(C)C`, the EC50 on Mu-type opioid receptor [1] and at Mu-type opioid receptor [2] was 52.4 to 91.1 nM in each case.
On to `COC(=O)[C@@H]1C[C@H](OC(=O)Cl)C(=O)[C@H]2[C@@]1(C)CC[C@H]1C(=O)O[C@H](c3ccoc3)C[C@]21C`, for which, in [3], the Kd (in general, the constant that tells how readily two partners part at equilibrium) came to 2.1 nM. In addition, the EC50 (as a rule, the concentration at which the effect is half-maximal) in [4] came out at 0.19 nM. Besides, the Emax (in general, the greatest response seen or fitted, relative to the assay's reference) in experiment [5] was 85%.
Consider `CN(C)[C@H](CNC(=O)NCCc1cccs1)Cc1cccc2ccccc12`, for which the EC50 on Mu-type opioid receptor [1] and at Mu-type opioid receptor [2] was 52.4 to 91.1 nM throughout.
In turn, `Oc1cccc(CCN(CCc2ccccc2)CC2CC2)c1` had an ED50 with Mus musculus [6] of 6.02 nmol. The compound also returned an EC50 in [7] of 36.7 nM.
Consider `C=C(C(N)=O)C(NC(=O)[C@H](Cc1c[nH]c2ccccc12)NC(=O)[C@@H](C)N(C)C(=O)C(N)Cc1c(C)cc(O)cc1C)c1ccccc1` (some centres undefined), for which, at Mu-type opioid receptor [8], the EC50 was in the range of 0.00177 to 0.00515 nM and the Ki (as a rule, the equilibrium dissociation constant of an inhibitor or competing ligand from its target) is 0.0109 to 0.0511 nM.
For the compound `CC[C@@H]1CN2CC[C@]3(Nc4cccc(OC)c4C3=O)[C@@H]2C[C@@H]1/C(=C\OC)C(=O)OC`, the EC50 (in experiment [9]; in experiment [10]; on Mu-type opioid receptor [11]; in experiment [15]; in [16]; on Mu-type opioid receptor [18]) was 1.7 nM throughout. The IC50 (as a rule, the midpoint of a concentration-inhibition curve) in [9] was 1.26 nM; in experiment [10] it was 1.7 nM; on Mu-type opioid receptor [11], 0.282 nM; in experiment [15] it was 132 nM; in experiment [16] it was 132 nM; on Mu-type opioid receptor [18] it was 6.61 nM. Besides, the Emax (at Mu-type opioid receptor [12]; in [13]; in experiment [14]; in experiment [17]; in experiment [19]) was 82% each time.
Consider `CN(C)[C@H](CNC(=O)NCCc1ccsc1)Cc1cccc2ccccc12`, for which the EC50 at Mu-type opioid receptor [1] and at Mu-type opioid receptor [2] was 203 nM each time.
The compound `C=C(C(N)=O)C(NC(=O)[C@H](Cc1c[nH]c2ccccc12)NC(=O)[C@@H](C)N(C)C(=O)[C@@H](N)Cc1ccc(O)cc1)c1ccco1` (some centres undefined) showed an EC50 on Mu-type opioid receptor [8] of 1.45 to 39 nM.
In the case of `CC[C@@H]1CN2CC[C@]3(Nc4cccc(-c5ccccc5)c4C3=O)[C@@H]2C[C@@H]1/C(=C\OC)C(=O)OC`, the EC50 (in experiment [9]; in experiment [10]; on Mu-type opioid receptor [11]; in experiment [15]; in experiment [16]; at Mu-type opioid receptor [18]) was 1.4 nM throughout. The Emax (on Mu-type opioid receptor [12]; in [13]; in [14]; in experiment [17]; in experiment [19]) was 123% throughout.
`C=C(C(N)=O)C(NC(=O)[C@H](Cc1ccccc1)NC(=O)[C@@H](C)N(C)C(=O)[C@@H](N)Cc1ccc(O)cc1)c1ccccc1` (some centres undefined): at Mu-type opioid receptor [8], a half-maximal response (EC50) required 4 nM.
In the experiment on Mus musculus [20], `C=C(C(N)=O)C(NC(=O)[C@H](Cc1c[nH]c2ccccc12)NC(=O)[C@@H](C)N(C)C(=O)C(N)Cc1c(C)cc(O)cc1C)c1ccco1` (some centres undefined) had an ED50 of 0.0152 µmol/kg. In the experiment with Mus musculus [21], this compound gave an ED50 of 0.000382 µmol/kg. Further, on Mu-type opioid receptor [8], the EC50 lay within 0.00177 to 0.00515 nM and the Ki was in the range of 0.0109 to 0.0511 nM.
In the case of `CN(C)[C@H](CNC(=O)NCCc1ccsc1)Cc1ccc2ccccc2c1`, the EC50 at Mu-type opioid receptor [1] and on Mu-type opioid receptor [2] was 52.4 to 243 nM in each case.
